Experimental data: US7887850B2, “Method for reducing pathogens in the gastrointestinal tract of poultry and other food animals” (Ecolab Inc., priority 2004, dated 2011)

System: broilers
Procedure: A total of 320 broilers (35 days of age) were randomly allocated to 64 pens (5 birds/pen). […] All solutions were prepared and replaced twice a day, and all birds were given free access to the solutions. Water intake, feed consumption, weight gain, and mortality was monitored during the seven day experimental period.

O=C(O)CC(O)(CC(=O)O)C(=O)O [citric acid]
levels that did not affect live performance (broilers, drinking water, seven days, percent by weight): up to 0.4%
differences in mortality during the experiment (chicken (broilers), in vivo): No significant (P>0.05) differences
response of daily and 7-day water consumption to graded levels in the water (in vivo): Linear and quadratic responses
